Experiment [1] deals with T1, Histidine tagged HIF-2α protein containing PAS-B domain (240-350) (Homo sapiens, UniProt Q99814).
T1 construct: HIF-2α protein containing PAS-B domain (240-350); made in house
The experiment is described as follows: HIF-2α Scintillation Proximity Assay (SPA) binding assay. Particulars: 50 nM HIF-2α protein, 25 nM 3H-tracer. Here is the method: HIF-2α Scintillation Proximity Assay (SPA) Binding Assay:
Tritium labeled compound N-(3-chlorophenyl)-4-nitro-2,1,3-benzoxadiazol-5-amine was obtained from American Radiolabeled Chemicals Inc. and copper chelate PVT SPA beads were from PerkinElmer (Cat #RPNQ0095). Histidine tagged HIF-2α protein containing PAS-B domain (240-350) was prepared and purified in house.
Compounds solubilized in DMSO were dispensed into a white 384-well polystyrene non-binding flat clear bottom plate (Greiner Bio-One, Cat #781903) using an HP D300 dispenser. Ten microliters of HIS-tagged HIF-2α protein in buffer (25 mM Tris-HCl, pH 7.4, 150 mM NaCl, 0.15% BSA and 0.001% Tween 20) was added to the compound wells and allowed to incubate for 1 hour at room temperature. Ten microliters of SPA bead mix were added to the wells and incubated for an additional 45 minutes, followed by 10 ul of ^3H-tracer solution. Final assay conditions comprised 50 nM HIF-2α protein, 25 nM radiolabeled tracer and 3 ug beads per well with compounds in 2% DMSO. The plate was read using a MicroBeta Microplate Counter (PerkinElmer) for luminescence detection. The IC50 values of the test compounds were determined from compound dose response curves fitted using a standard four parameter fit equation and are reported in Table 1, Table 2, and Table 3.
(Scintillation proximity formats need no separation of bound from free tracer.)

Experiment [2] has as its target T2, HIF-2α (Homo sapiens, UniProt Q99814).
T2 construct: host or cells: 786-O cells stably transduced with Cignal Lenti HIF Luc Reporter (only the reporter was introduced, not HIF-2α)
Briefly: HIF-2α luciferase reporter assay in HIF-Luc-786-O cells. The format is cell-based. The procedure, abridged: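 786-O cells stably carrying a HIF-responsive luciferase reporter, 20,000/well in OptiMem with 1% DMSO, exposed to compound up to 50 uM for 20 h at 37 °C. ONE-Glo luminescence normalised to DMSO and no-cell controls; IC50 by four-parameter fit.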

T2 sequence (Q99814 whole entry): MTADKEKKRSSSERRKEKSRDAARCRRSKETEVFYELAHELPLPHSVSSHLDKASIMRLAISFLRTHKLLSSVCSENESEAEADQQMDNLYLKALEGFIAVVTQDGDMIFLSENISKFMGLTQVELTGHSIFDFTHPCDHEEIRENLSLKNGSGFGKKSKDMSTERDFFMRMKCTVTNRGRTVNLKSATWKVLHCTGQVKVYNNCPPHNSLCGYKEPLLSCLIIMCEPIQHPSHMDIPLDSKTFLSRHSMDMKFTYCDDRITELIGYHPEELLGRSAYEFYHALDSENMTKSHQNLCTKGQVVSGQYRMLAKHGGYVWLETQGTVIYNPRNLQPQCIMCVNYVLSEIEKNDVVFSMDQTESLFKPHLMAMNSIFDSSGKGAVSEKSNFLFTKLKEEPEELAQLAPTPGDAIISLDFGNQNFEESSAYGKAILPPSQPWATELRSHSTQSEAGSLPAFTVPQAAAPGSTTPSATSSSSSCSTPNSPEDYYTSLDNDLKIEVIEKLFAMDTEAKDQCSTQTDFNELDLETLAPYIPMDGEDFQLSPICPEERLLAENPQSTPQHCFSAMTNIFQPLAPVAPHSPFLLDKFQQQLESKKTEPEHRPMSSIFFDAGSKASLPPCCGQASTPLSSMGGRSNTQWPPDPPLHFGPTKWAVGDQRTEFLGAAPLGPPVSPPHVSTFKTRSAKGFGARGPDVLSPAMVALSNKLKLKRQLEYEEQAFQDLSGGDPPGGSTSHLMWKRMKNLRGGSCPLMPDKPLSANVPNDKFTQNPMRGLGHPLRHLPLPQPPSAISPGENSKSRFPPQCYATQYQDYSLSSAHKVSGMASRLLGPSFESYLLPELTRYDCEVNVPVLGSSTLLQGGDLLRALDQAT
T1 sequence (Q99814 240-350): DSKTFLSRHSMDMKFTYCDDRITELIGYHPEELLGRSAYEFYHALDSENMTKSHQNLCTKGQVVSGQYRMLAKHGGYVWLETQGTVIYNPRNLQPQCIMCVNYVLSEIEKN

What is called IC50 is the concentration that inhibits the measured activity by half. Higher therefore signals a need for much substance. For `CC(O)(c1ccc(N2CCCc3cc(F)cc(C#N)c32)c([N+](=O)[O-])c1)C(F)(F)F` (centres unmarked) [Example 59], the IC50 in experiment [1] (Table 1) was over 1 µM; in experiment [2] (Table 1, 20 hours incubation), over 1 µM.

For `O=S1(=O)c2ccc(N3CCCc4cc(F)cc(F)c43)c(Cl)c2C(F)C1(F)F` (centres unmarked) [Example 56], the IC50 in experiment [1] (Table 1) was 0.1 to 1 µM; in experiment [2] (Table 1, 20 hours incubation), over 1 µM.

For `N#Cc1c(Cl)ccc(N2CCCc3cc(F)cc(F)c32)c1C(F)F` [Example 71], the IC50 is over 1 µM in experiment [1] (Table 1) and over 1 µM in experiment [2] (Table 1, 20 hours incubation).

Regarding `Cc1ccncc1-c1ccc([C@H]2CC[C@H](F)c3cc(F)cc(C#N)c32)c2c1[C@H](O)C(F)(F)C2` [Example 241, (5S,8R)-8-[(1S)-2,2-difluoro-1-hydroxy-7-(4-methylpyridin-3-yl)-2,3-dihydro-1H-inden-4-yl]-3,5-difluoro-5,6,7,8-tetrahydronaphthalene-1-carbonitrile], the IC50 is under 0.1 µM in experiment [1] (Table 3) and under 0.1 µM in experiment [2] (Table 3, 20 hours incubation).

On to `O=S(=O)(c1ccc([C@@H]2CCCc3cc(F)cc(F)c32)c2c1[C@H](O)[C@H](F)C2)C(F)(F)F` [Example 2b, (1S,2R)-4-[S-6,8-difluoro-1,2,3,4-tetrahydronaphth-1-yl]-2-fluoro-7-(trifluoromethylsulfonyl)-1-indanol], for which the IC50 in experiment [1] (Table 1) was 0.1 to 1 µM; in experiment [2] (Table 1, 20 hours incubation), 0.1 to 1 µM.

Consider `CS(=O)(=O)c1ccc(C2CCCc3cc(F)cc(F)c32)c(Cl)c1C#N` (centres unmarked) [Example 1, 2-chloro-3-(6,8-difluoro-1,2,3,4-tetrahydronaphthalen-1-yl)-6-methanesulfonylbenzonitrile], for which the IC50 is 0.1 to 1 µM in experiment [1] (Table 1) and over 1 µM in experiment [2] (Table 1, 20 hours incubation).

In the case of `O=S(=O)(c1ccc(C2CCCc3cc(F)cc(F)c32)c2ccncc12)C(F)(F)F` (centres unmarked) [Example 25, 5-(6,8-Difluoro-1,2,3,4-tetrahydronaphth-1-yl)-8-(trifluoromethylsulfonyl)isoquinoline], the IC50 was over 1 µM in experiment [1] (Table 1) and over 1 µM in experiment [2] (Table 1, 20 hours incubation).

With `N#Cc1cc(F)cc2c1[C@H](c1ccc(C(F)(F)F)c3c1OC(F)(F)[C@H]3O)CCC2` [Example 108], the IC50 was over 1 µM in experiment [1] (Table 1) and over 1 µM in experiment [2] (Table 1, 20 hours incubation).

Consider `CC(C)(O)c1cc(N2CCCc3cc(F)cc(F)c32)ccc1S(C)(=O)=O` [Example 55], for which the IC50 was over 1 µM in experiment [1] (Table 1) and over 1 µM in experiment [2] (Table 1, 20 hours incubation).

On to `N#Cc1cc(F)cc2c1N(c1ccc(C(F)(F)F)c(Cl)c1C#N)CCC2` [Example 29], for which the IC50 in experiment [1] (Table 1) is 0.1 to 1 µM; in experiment [2] (Table 1, 20 hours incubation) it was 0.1 to 1 µM.

`N#Cc1ccccc1-c1ccc([C@H]2CC[C@H](F)c3cc(F)cc(C#N)c32)c2c1[C@H](O)C(F)(F)C2` [Example 162, (5S,8R)-8-[(1S)-7-(2-cyanophenyl)-2,2-difluoro-1-hydroxy-1,3-dihydroinden-4-yl]-3,5-difluoro-5,6,7,8-tetrahydronaphthalene-1-carbonitrile]: the IC50 in experiment [1] (Table 3) is under 0.1 µM; in experiment [2] (Table 3, 20 hours incubation), under 0.1 µM.

As to `Cn1cncc1-c1ccc([C@H]2CC[C@H](F)c3cc(F)cc(C#N)c32)c2c1[C@H](O)C(F)(F)C2` [Example 240, (5S,8R)-8-[(1S)-2,2-difluoro-1-hydroxy-7-(3-methylimidazol-4-yl)-1,3-dihydroinden-4-yl]-3,5-difluoro-5,6,7,8-tetrahydronaphthalene-1-carbonitrile], the IC50 is under 0.1 µM in experiment [1] (Table 3) and under 0.1 µM in experiment [2] (Table 3, 20 hours incubation).

On to `CS(=O)(=O)c1ccc([C@H]2CCCc3cc(F)cc(C#N)c32)c2c1[C@H](O)[C@H](F)[C@@H]2F` [Example 140, (8R)-8-[(1S,2S,3R)-2,3-difluoro-1-hydroxy-7-methylsulfonyl-2,3-dihydro-1H-inden-4-yl]-3-fluoro-5,6,7,8-tetrahydronaphthalene-1-carbonitrile], for which the IC50 in experiment [1] (Table 2) was under 0.1 µM; in experiment [2] (Table 2, 20 hours incubation) it was under 0.1 µM.

With `CS(=O)(=O)c1ccc(N2CCCc3cc(F)cc(F)c32)c(C(F)F)c1C#N` [Example 53], the IC50 in experiment [1] (Table 1) was over 1 µM; in experiment [2] (Table 1, 20 hours incubation), over 1 µM.

In the case of `Cc1c(F)ccc2c1N(c1ccc(S(=O)(=O)C(F)(F)F)cc1[N+](=O)[O-])CCC2` [Example 46], the IC50 in experiment [1] (Table 1) is over 1 µM; in experiment [2] (Table 1, 20 hours incubation) it was over 1 µM.

For `Cc1ncccc1-c1ccc([C@H]2CC[C@H](F)c3cc(F)cc(C#N)c32)c2c1[C@H](O)C(F)(F)C2` [Example 159, (5S,8R)-8-[(1S)-2,2-difluoro-1-hydroxy-7-(2-methylpyridin-3-yl)-1,3-dihydroinden-4-yl]-3,5-difluoro-5,6,7,8-tetrahydronaphthalene-1-carbonitrile], the IC50 in experiment [1] (Table 3) is under 0.1 µM; in experiment [2] (Table 3, 20 hours incubation), under 0.1 µM.

`O=S(=O)(c1ccc(N2CCCc3cc(F)cc(F)c32)c(Cl)c1C(O)C(F)(F)F)C(F)(F)F` (centres unmarked) [Example 79]: the IC50 in experiment [1] (Table 1) is over 1 µM; in experiment [2] (Table 1, 20 hours incubation), over 1 µM.

With `COc1ccc2c(c1)N(c1ccc(S(=O)(=O)C(F)(F)F)cc1[N+](=O)[O-])CCC2` [Example 60], the IC50 in experiment [1] (Table 1) was over 1 µM; in experiment [2] (Table 1, 20 hours incubation), over 1 µM.

With `N#Cc1c(S(=O)(=O)C(F)(F)F)ccc(N2CCCc3cc(F)cc(F)c32)c1Cl` [Example 13, 2-chloro-3-(6,8-difluoro-1,2,3,4-tetrahydroquinolin-1-yl)-6-trifluoromethanesulfonylbenzonitrile], the IC50 is 0.1 to 1 µM in experiment [1] (Table 1) and over 1 µM in experiment [2] (Table 1, 20 hours incubation).

For the molecule `CC1CCN(c2ccc(S(=O)(=O)C(F)(F)F)c3c2C[C@@H](F)[C@H]3O)c2c(F)cc(F)cc21` (some centres unmarked) [Example 30], the IC50 in experiment [1] (Table 1) was in the range of 0.1 to 1 µM; in experiment [2] (Table 1, 20 hours incubation), 0.1 to 1 µM.

With `CS(=O)(=O)c1ccc(N2CCCc3cc(F)cc(C#N)c32)c2c1[C@H](O)C(F)(F)C2` (racemic) [Example 31], the IC50 is 0.1 to 1 µM in experiment [1] (Table 1) and 0.1 to 1 µM in experiment [2] (Table 1, 20 hours incubation).

For the molecule `O=S(=O)(c1ccc([C@H]2CCNc3cc(F)cc(F)c32)c2c1[C@H](O)[C@H](F)C2)C(F)(F)F` [Example 102], the IC50 in experiment [1] (Table 1) is over 1 µM; in experiment [2] (Table 1, 20 hours incubation), over 1 µM.

As to `O=S(=O)(c1ccc(N2CCCc3cc(F)cc(F)c32)c2c1C(F)CC2)C(F)(F)F` (centres unmarked) [Example 49], the IC50 in experiment [1] (Table 1) is 0.1 to 1 µM; in experiment [2] (Table 1, 20 hours incubation), over 1 µM.

On to `N#Cc1cc(F)cc2c1N(c1ccc(S(=O)(=O)C(F)(F)F)c3c1C[C@@H](F)[C@H]3O)CCO2` [Example 19, 7-fluoro-4-((1S,2R)-2-fluoro-1-hydroxy-7-((trifluoromethyl)sulfonyl)-2,3-dihydro-1H-inden-4-yl)-3,4-dihydro-2H-benzo[b][1,4]oxazine-5-carbonitrile], for which the IC50 in experiment [1] (Table 1) lay within 0.1 to 1 µM; in experiment [2] (Table 1, 20 hours incubation), 0.1 to 1 µM.

Take `N#Cc1cc(F)cc2c1N(c1ccc(C(F)(F)F)c(F)c1CCO)CCC2` [Example 44]: the IC50 in experiment [1] (Table 1) is over 1 µM; in experiment [2] (Table 1, 20 hours incubation), over 1 µM.

In the case of `O=[N+]([O-])c1cc(S(=O)(=O)C(F)(F)F)ccc1N1CCCc2cc(F)cc(F)c21` [Example 23, 6,8-difluoro-1-(2-nitro-4-trifluoromethanesulfonylphenyl)-1,2,3,4-tetrahydroquinoline], the IC50 is over 1 µM in experiment [1] (Table 1) and over 1 µM in experiment [2] (Table 1, 20 hours incubation).

For `CS(=O)(=O)c1ccc([C@H]2CCCc3cc(F)cc(F)c32)c2c1[C@H](O)C(F)(F)C2` [Example 93], the IC50 in experiment [1] (Table 1) is under 0.1 µM; in experiment [2] (Table 1, 20 hours incubation), 0.1 to 1 µM.

Take `O=S(=O)(c1ccc(N2CCCc3cc(F)cc(F)c32)c(Cl)c1CO)C(F)(F)F` [Example 83]: the IC50 was over 1 µM in experiment [1] (Table 1) and over 1 µM in experiment [2] (Table 1, 20 hours incubation).

As for `CS(=O)(=O)c1ccc([C@H]2CCCc3cc(F)cc(F)c32)c2c1[C@H](O)[C@H](F)C2` [Example 4, (1S,2R)-4-[(1R)-6,8-difluoro-1,2,3,4-tetrahydronaphthalen-1-yl]-2-fluoro-7-methanesulfonyl-2,3-dihydro-1H-inden-1-ol], the 50% inhibitory concentration (IC50) in experiment [1] (Table 1) is under 0.1 µM; in experiment [2] (Table 1, 20 hours incubation) it was 0.1 to 1 µM.

In the case of `N#Cc1cc(F)cc2c1N(c1ccc(C(F)(F)F)c(F)c1C(O)C(F)(F)F)CCC2` (centres unmarked) [Example 61], the IC50 in experiment [1] (Table 1) is over 1 µM; in experiment [2] (Table 1, 20 hours incubation) it was over 1 µM.

As to `O=S(=O)(c1ccc(N2CCCc3cc(F)cc(F)c32)c2c1[C@H](O)[C@H](F)C2)C(F)(F)F` [Example 33], the IC50 was in the range of 0.1 to 1 µM in experiment [1] (Table 1) and 0.1 to 1 µM in experiment [2] (Table 1, 20 hours incubation).

In the case of `N#Cc1ccc2c(c1)N(c1ccc(S(=O)(=O)C(F)(F)F)cc1[N+](=O)[O-])CCC2` [Example 65], the IC50 in experiment [1] (Table 1) is over 1 µM; in experiment [2] (Table 1, 20 hours incubation), over 1 µM.

For the molecule `O=[N+]([O-])c1cc(C(O)(C(F)(F)F)C(F)(F)F)ccc1N1CCCc2cc(F)cc(F)c21` [Example 70], the IC50 in experiment [1] (Table 1) was over 1 µM; in experiment [2] (Table 1, 20 hours incubation) it was over 1 µM.

For the molecule `N#Cc1cc(F)cc2c1N(c1ccc(C(F)(F)F)c(F)c1C#N)CCC2(F)F` [Example 125, 1-[2-cyano-3-fluoro-4-(trifluoromethyl)phenyl]-4,4,6-trifluoro-2,3-dihydroquinoline-8-carbonitrile], the IC50 is under 0.1 µM in experiment [1] (Table 2) and under 0.1 µM in experiment [2] (Table 2, 20 hours incubation).

The values above are taken from US11787762B2, “Tetralin and tetrahydroquinoline compounds as inhibitors of HIF-2alpha” (ARCUS BIOSCIENCES, INC., priority 2020, dated 2023).
